Structures can show the parent of a compound that is named as a salt.

T1 sequence (O60760 whole entry): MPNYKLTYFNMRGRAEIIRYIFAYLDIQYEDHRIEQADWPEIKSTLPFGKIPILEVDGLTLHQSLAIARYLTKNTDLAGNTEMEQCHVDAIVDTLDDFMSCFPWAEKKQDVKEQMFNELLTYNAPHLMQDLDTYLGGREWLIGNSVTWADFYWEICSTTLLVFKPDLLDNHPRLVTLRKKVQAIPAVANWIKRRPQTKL

One test concerns the target T1, haematopoietic prostaglandin D synthase (H-PGDS) (Homo sapiens, UniProt O60760).
T1 construct: Full length human H-PGDS cDNA (Invitrogen Ultimate ORF IOH13026) was amplified by PCR; made in house; host or cells: E. coli BL21 (DE3*), vector pET22b+
Briefly: H-PGDS RapidFire High Throughput Mass Spectrometry Assay. It counts as biochemical. Particulars: H-PGDS RapidFire MS assay, mean pIC50; read-out: Potency Range (mean pIC50) (converted). In outline:
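PGH2 (~10 μM burst) generated in situ from arachidonic acid by FLAG-tagged human COX-2 (Sf9-expressed), then converted to PGD2 by full-length human His-tagged H-PGDS from E. coli. PGD2 and PGF2α (substrate surrogate) quantified by RapidFire SPE-triple quadrupole MS; percent conversion calculated.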
Take `N#Cc1cnc(N2CCC(NC(=O)c3cnc4cc(OC(F)F)c(F)cc4c3)CC2)o1` [Example 97, N-(1-(5-Cyanooxazol-2-yl)piperidin-4-yl)-7-(difluoromethoxy)-6-fluoroquinoline-3-carboxamide]: the IC50 was 10 to 79.4 nM.

For the compound `N#Cc1ccc(N2CC(NC(=O)c3cnc4cc(OC(F)F)c(F)cc4c3)C2)nc1` [Example 98, N-(1-(5-Cyanopyridin-2-yl)azetidin-3-yl)-7-(difluoromethoxy)-6-fluoroquinoline-3-carboxamide], the IC50 was 10 to 79.4 nM.

In the case of `C[C@@H](NC[C@H]1CC[C@H](NC(=O)c2cnc3cc(OC(F)F)c(F)cc3c2)CC1)C(F)F` [Example 99, 7-(Difluoromethoxy)-N-(trans-4-((((R)-1,1-difluoropropan-2-yl)amino)methyl)cyclohexyl)-6-fluoroquinoline-3-carboxamide], the IC50 was 10 to 79.4 nM.

With `C[C@H](NC[C@H]1CC[C@H](NC(=O)c2cnc3cc(OC(F)F)c(F)cc3c2)CC1)C(F)F` [Example 100, 7-(Difluoromethoxy)-N-(trans-4-((((S)-1,1-difluoropropan-2-yl)amino)methyl)cyclohexyl)-6-fluoroquinoline-3-carboxamide], the IC50 is 10 to 79.4 nM.

For `C#CCOC[C@H]1CC[C@H](NC(=O)c2cnc3cc(OC(F)F)c(F)cc3c2)CC1` [Example 101, 7-(Difluoromethoxy)-6-fluoro-N-(trans-4-((prop-2-yn-1-yloxy)methyl)cyclohexyl)quinoline-3-carboxamide], the IC50 was less than 10 nM.

For `C#CCNC(=O)CO[C@H]1CC[C@H](NC(=O)c2cnc3cc(OC(F)F)c(F)cc3c2)CC1` [Example 102, 7-(Difluoromethoxy)-6-fluoro-N-(trans-4-(2-oxo-2-(prop-2-yn-1-ylamino)ethoxy)cyclohexyl)quinoline-3-carboxamide], the IC50 is 10 to 79.4 nM.

Turning to `C#CCCNC(=O)CO[C@H]1CC[C@H](NC(=O)c2cnc3cc(OC(F)F)c(F)cc3c2)CC1` [Example 103, N-(trans-4-(2-(but-3-yn-1-ylamino)-2-oxoethoxy)cyclohexyl)-7-(difluoromethoxy)-6-fluoroquinoline-3-carboxamide], the IC50 is 10 to 79.4 nM.

On to `CCc1cccc2cc(C(=O)Nc3nccs3)cnc12` [Example 105, 8-Ethyl-N-(thiazol-2-yl)quinoline-3-carboxamide], for which the IC50 is 100 to 1000 nM.

Regarding `Cn1nnnc1N1CCC(NC(=O)c2cnc3ccc(Cl)cc3c2)CC1` [Example 106, 6-Chloro-N-(1-(1-methyl-1H-tetrazol-5-yl)piperidin-4-yl)quinoline-3-carboxamide], the IC50 was 100 to 1000 nM.

As for `Cn1nnnc1N1CCC(NC(=O)c2cnc3cc(C(F)(F)F)ccc3c2)CC1` [Example 107, N-(1-(1-Methyl-1H-tetrazol-5-yl)piperidin-4-yl)-7-(trifluoromethyl)quinoline-3-carboxamide], the IC50 is 100 to 1000 nM.

As to `Cn1nnnc1N1CCC(NC(=O)c2cnc3cc(Br)ccc3c2)CC1` [Example 108, 7-Bromo-N-(1-(1-methyl-1H-tetrazol-5-yl)piperidin-4-yl)quinoline-3-carboxamide], the IC50 was 10 to 79.4 nM.

Regarding `Cn1nnnc1N1CCC(NC(=O)c2cnc3cc(Cl)ccc3c2)CC1` [Example 109, 7-Chloro-N-(1-(1-methyl-1H-tetrazol-5-yl)piperidin-4-yl)quinoline-3-carboxamide], the IC50 is 100 to 1000 nM.

As to `CCc1ccc2cc(C(=O)NC3CCN(c4nnnn4C)CC3)cnc2c1` [Example 110, 7-Ethyl-N-(1-(1-methyl-1H-tetrazol-5-yl)piperidin-4-yl)quinoline-3-carboxamide], the IC50 was 10 to 79.4 nM.

In the case of `Cn1nnnc1N1CCC(NC(=O)c2cnc3cc4c(cc3c2)OCCO4)CC1` [Example 111, N-(1-(1-Methyl-1H-tetrazol-5-yl)piperidin-4-yl)-2,3-dihydro-[1,4]dioxino[2,3-q]quinoline-8-carboxamide], the IC50 is 10 to 79.4 nM.

With `Cn1nnnc1N1CCC(NC(=O)c2cnc3c4c(ccc3c2)CCO4)CC1` [Example 112, N-(1-(1-Methyl-1H-tetrazol-5-yl)piperidin-4-yl)-2,3-dihydrofuro[3,2-h]quinoline-7-carboxamide], the IC50 is 10 to 79.4 nM.

As to `CC(C)(O)[C@H]1CC[C@H](NC(=O)c2cnc3c4c(ccc3c2)CCO4)CC1` [Example 113, N-(trans-4-(2-Hydroxypropan-2-yl)cyclohexyl)-2,3-dihydrofuro[3,2-h]quinoline-7-carboxamide], the IC50 is 10 to 79.4 nM.

Consider `COc1cc2ncc(C(=O)NC3CCN(c4nnnn4C)CC3)cc2cc1C#N` [Example 114, 6-Cyano-7-methoxy-N-(1-(1-methyl-1H-tetrazol-5-yl)piperidin-4-yl)quinoline-3-carboxamide], for which the IC50 is 100 to 1000 nM.

Regarding `CC(C)Oc1ccc2cc(C(=O)NC3CCN(c4nnnn4C)CC3)cnc2c1` [Example 115, 7-Isopropoxy-N-(1-(1-methyl-1H-tetrazol-5-yl)piperidin-4-yl)quinoline-3-carboxamide], the IC50 was 100 to 1000 nM.

Regarding `CC(C)(O)[C@H]1CC[C@H](NC(=O)c2cnc3cc(OC(F)F)c(Cl)cc3c2)CC1` [Example 116, (6-Chloro-7-(difluoromethoxy)-N-(trans-4-(2-hydroxypropan-2-yl)cyclohexyl)quinoline-3-carboxamide, trifluoroacetate], the IC50 is less than 10 nM.

As to `CC(C)(O)[C@H]1C[C@H](NC(=O)c2cnc3cc(OC(F)F)c(Cl)cc3c2)C1` [Example 118, 6-Chloro-7-(difluoromethoxy)-N-(trans-3-(2-hydroxypropan-2-yl)cyclobutyl)quinoline-3-carboxamide], the IC50 was less than 10 nM.

Turning to `CC(C)N1CC[C@H](NC(=O)c2cnc3cc(OC(F)F)c(Cl)cc3c2)C1=O` [Example 119, (S)-6-Chloro-7-(difluoromethoxy)-N-(1-isopropyl-2-oxopyrrolidin-3-yl)quinoline-3-carboxamide], the IC50 was 10 to 79.4 nM.

For the compound `O=C(N[C@H]1CCN(CC2CC2)C1=O)c1cnc2cc(OC(F)F)c(Cl)cc2c1` [Example 120, (S)-6-Chloro-N-(1-(cyclopropylmethyl)-2-oxopyrrolidin-3-yl)-7-(difluoromethoxy)quinoline-3-carboxamide], the IC50 was 10 to 79.4 nM.

For `O=C(N[C@H]1CC[C@H](C2(O)CC2)CC1)c1cnc2cc(OC(F)F)c(Cl)cc2c1` [Example 121, 6-Chloro-7-(difluoromethoxy)-N-(trans-4-(1-hydroxycyclopropyl)cyclohexyl)quinoline-3-carboxamide], the IC50 was less than 10 nM.

On to `CC(C)(O)CO[C@H]1CC[C@H](NC(=O)c2cnc3cc(OC(F)F)c(Cl)cc3c2)CC1` [Example 122, 6-Chloro-7-(difluoromethoxy)-N-(trans-4-(2-hydroxy-2-methylpropoxy)cyclohexyl)quinoline-3-carboxamide], for which the IC50 is less than 10 nM.

In the case of `O=C(N[C@H]1CC[C@H](OCC2(O)CC2)CC1)c1cnc2cc(OC(F)F)c(Cl)cc2c1` [Example 123, 6-Chloro-7-(difluoromethoxy)-N-(trans-4-((1-hydroxycyclopropyl)methoxy)cyclohexyl)quinoline-3-carboxamide], the IC50 is less than 10 nM.

As to `CC(C)C(O)CO[C@H]1CC[C@H](NC(=O)c2cnc3cc(OC(F)F)c(Cl)cc3c2)CC1` (stereo partly drawn) [Example 127, 6-Chloro-7-(difluoromethoxy)-N-(trans-4-(2-hydroxy-3-methylbutoxy)cyclohexyl)quinoline-3-carboxamide], the IC50 is less than 10 nM.

With `Cn1nc(C2CC2)cc1NC(=O)c1cnc2cc(OC(F)F)c(Cl)cc2c1` [Example 128, 6-Chloro-N-(3-cyclopropyl-1-methyl-1H-pyrazol-5-yl)-7-(difluoromethoxy)quinoline-3-carboxamide], the IC50 was 10 to 79.4 nM.

As for `C[C@@H](N[C@H]1CC[C@H](NC(=O)c2cnc3cc(OC(F)F)c(Cl)cc3c2)CC1)C(F)F` [Example 129, 6-Chloro-7-(difluoromethoxy)-N-(trans-4-(((R)-1,1-difluoropropan-2-yl)amino)cyclohexyl)quinoline-3-carboxamide], the IC50 was less than 10 nM.

`C[C@H](N[C@H]1CC[C@H](NC(=O)c2cnc3cc(OC(F)F)c(Cl)cc3c2)CC1)C(F)F` [Example 130, 6-Chloro-7-(difluoromethoxy)-N-(trans-4-(((S)-1,1-difluoropropan-2-yl)amino)cyclohexyl)quinoline-3-carboxamide]: the IC50 was less than 10 nM.

For `O=C(N[C@H]1CC[C@H](N[C@@H](CO)C(F)(F)F)CC1)c1cnc2cc(OC(F)F)c(Cl)cc2c1` [Example 131, 6-Chloro-7-(difluoromethoxy)-N-(trans-4-(((S)-1,1,1-trifluoro-3-hydroxypropan-2-yl)amino)cyclohexyl)quinoline-3-carboxamide], the IC50 is less than 10 nM.

Turning to `O=C(N[C@H]1CC[C@H](N2CC(F)C2)CC1)c1cnc2cc(OC(F)F)c(Cl)cc2c1` [Example 132, 6-Chloro-7-(difluoromethoxy)-N-(trans-4-(3-fluoroazetidin-1-yl)cyclohexyl)quinoline-3-carboxamide], the IC50 was less than 10 nM.

Turning to `O=C(N[C@H]1CC[C@H](N2CC(O)(C(F)(F)F)C2)CC1)c1cnc2cc(OC(F)F)c(Cl)cc2c1` [Example 134, 6-Chloro-7-(difluoromethoxy)-N-(trans-4-(3-hydroxy-3-(trifluoromethyl)azetidin-1-yl)cyclohexyl)quinoline-3-carboxamide], the IC50 is less than 10 nM.

For `O=C(N[C@H]1CC[C@H](N[C@H](CO)C(F)(F)F)CC1)c1cnc2cc(OC(F)F)c(Cl)cc2c1` [Example 135, 6-Chloro-7-(difluoromethoxy)-N-(trans-4-(((R)-1,1,1-trifluoro-3-hydroxypropan-2-yl)amino)cyclohexyl)quinoline-3-carboxamide], the IC50 was less than 10 nM.

Staying with this test, now noted: in at least one experimental run; read-out: H-PGDS pIC50 value (converted).
As for `CC(C)(O)[C@H]1CC[C@H](NC(=O)c2cnc3cc(OC(F)F)c(Cl)cc3c2)CC1` [Example 116, (6-Chloro-7-(difluoromethoxy)-N-(trans-4-(2-hydroxypropan-2-yl)cyclohexyl)quinoline-3-carboxamide, trifluoroacetate], the IC50 was 2.51 nM.

As for `CC(C)(O)[C@H]1C[C@H](NC(=O)c2cnc3cc(OC(F)F)c(Cl)cc3c2)C1` [Example 118, 6-Chloro-7-(difluoromethoxy)-N-(trans-3-(2-hydroxypropan-2-yl)cyclobutyl)quinoline-3-carboxamide], the IC50 was 10 nM.

The values are drawn from patent US20210238162A1, “CHEMICAL COMPOUNDS” (GlaxoSmithKline Intellectual Property Development Limited, priority 2015, published 2021).
